Entries after “also recorded” stand apart in the source; their conditions may differ. Marks after values point to notes of the source that are not given here. Bridges are numbered along the chain shown (N, C = ends). Where no end group is shown, it is not given here. [ ]: non-standard residue; d: D form. The star is where a group is joined. c(FΦRRRRE) = cyclic peptide with F and E termini bonded, Φ = L-2-naphthylalanine; cyanopropanyl = 3-cyanopropanyl N-terminal cap, N#CCCC*; Nicotinoyl = O=C(c1cccnc1)*; Hexanoyl = CCCCCC(=O)*; Bz = O=C(c1ccccc1)*
Assays:
Assay type in all cases: cell-based
HeLa cells = assay: Autophagy induction judged by p62 and LC3 immunoblots together; conditions: HeLa cells; for autophagy induction, result in words: p62 and LC3 immunoblots; for concentration at which autophagy induction (p62 degradation and LC3 lipidation) was observed: immunoblot, 3 hour treatment
Description: This 10-mer sequence was substituted with various thiol-containing amino acids at various positions, and then cross-linked with various linkers as described above (FIG. 5, a and FIG. 6).
(§1) Cells were treated with peptide in OPTI-MEM (Thermo Scientific) acidified with 0.15% (v/v) 6N HCl for 3 hour. Cells were rinsed with Dulbecco's phosphate buffered saline (PBS) and lysed in lysis buffer (20 mM HEPES, 150 mM NaCl, 1 mM EDTA, 1% Triton X-100, protease inhibitor cocktail (Roche) on ice for 1 hour. Cell lysates were centrifuged at 16,000 g for 10 min at 4° C. and analyzed by SDS-PAGE and transferred to PVDF membranes. The membranes were blocked 5% non-fat dry milk (NFDM) in PBST (PBS+0.05% Tween-20) for 1 hour, then incubated overnight at 4° C. with primary antibody in 5% NFDM in PBST. The blots were washed with PBST and incubated with HRP-conjugated secondary antibodies diluted in 5% NFDM in PBST for 1 hour at room temperature. Membranes were washed with PBST and visualized with SuperSignal West Pico Chemiluminescent Substrate (Thermo Scientific). Semi-quantitative results were obtained by noting the lowest concentration at which both p62 degradation and LC3-I to LC3-II conversion were observed.
(SEQ ID NO: 16)-Sequence. […] The N-terminus was capped with an acetyl group while the C terminus was capped with a —C(O)—NH2 group. The activity reported is a summation of results from both the p62 degradation assay and the LC3 marker assay.

p62 = p62 degradation assay (p62/actin immunoblot); set-up: key: −: activity not reported; 0: decreased vs. WT; +: similar to WT; ++: modest increase vs. WT; +++: significant increase vs. WT; conditions: for Activity (μM) 10, p62/actin assay activity: 10 μM; for Activity (μM) 20, p62/actin assay activity: 20 μM; for Activity (μM) 30, p62/actin assay activity: 30 μM; for Activity (μM) 50, p62/actin assay activity: 50 μM; for Activity (μM) 100, p62/actin assay activity: 100 μM; for Activity (μM) 10, starred cell, p62/actin assay activity / Activity (μM) 30, starred cell, p62/actin assay activity: Table 8; for Activity (μM) 10, starred cell, p62/actin assay activity: 10 μM marked * (footnote: data taken at 20 instead of 30 μM); for Activity (μM) 30, starred cell, p62/actin assay activity: *Data taken at 20 instead of 30 μM
Description: as §1
(§2) Compounds 1-10 were evaluated using the assays described in Examples 4 and 5. Activity for each compound was measured in the p62 degradation assay and the LC3 marker assay as described herein. The activity at each concentration of peptide is given as, for example, (0/+) where 0 would be the p62/actin assay activity and + would be the LC3 assay activity.

LC3 = LC3 marker assay (LC3-I to LC3-II conversion immunoblot); set-up: key: −: activity not reported; 0: decreased vs. WT; +: similar to WT; ++: modest increase vs. WT; +++: significant increase vs. WT; conditions: for Activity (μM) 10, LC3 assay activity: 10 μM; for Activity (μM) 20, LC3 assay activity: 20 μM; for Activity (μM) 30, LC3 assay activity: 30 μM; for Activity (μM) 50, LC3 assay activity: 50 μM; for Activity (μM) 100, LC3 assay activity: 100 μM; for Activity (μM) 10, starred cell, LC3 assay activity / Activity (μM) 30, starred cell, LC3 assay activity: Table 8; for Activity (μM) 10, starred cell, LC3 assay activity: 10 μM marked * (footnote: data taken at 20 instead of 30 μM); for Activity (μM) 30, starred cell, LC3 assay activity: *Data taken at 20 instead of 30 μM
Description: as §1, §2

[1] = Table 3, control vehicle, first symbol of cell
[2] = Table 3, control vehicle, first symbol
[3] = Table 8, control compound T25, first symbol
[4] = Table 3, control vehicle, second symbol of cell
[5] = Table 3, control vehicle, second symbol
[6] = Table 8, control compound T25, second symbol

Which “autophagy induction, result in words” value (HeLa cells) does the source give for “(acetyl)-VcNAcFHIWH (Ac-V[dC]NA[dC]FHIWH; linker 2-5 via ortho‑xylene (inferred); not fully specified (C-terminus); printed as (acetyl)-VcNAcFHIWH) [Ac-DD5-o]” here?
Its value is “almost no autophagy-inducing activity”.

Which results are given for “(benzo)-VcNAcFHIWH (Bz-V[dC]NA[dC]FHIWH; linker 2-5 via ortho‑xylene (inferred); not fully specified (C-terminus); printed as (benzo)-VcNAcFHIWH) [benzo-DD5-o]”?
concentration at which autophagy induction (p62 degradation and LC3 lipidation) was observed (HeLa cells): 50 µM; autophagy induction, result in words (HeLa cells): induced autophagy to a slightly lesser extent than DD5-o

How did the “autophagy induction, result in words” value (HeLa cells) turn out when “(cyano)-VcNAcFHIWH (cyanopropanyl-V[dC]NA[dC]FHIWH; linker 2-5 via ortho‑xylene (inferred); not fully specified (C-terminus); printed as (cyano)-VcNAcFHIWH) [cyano-DD5-o]” was run?
The value was “induced autophagy, but to a somewhat lesser extent than DD5-o”.

For “(free amine)-VcNAcFHIWH (H-V[dC]NA[dC]FHIWH; linker 2-5 via ortho‑xylene (inferred); not fully specified (C-terminus); printed as VcNAcFHIWH) [Compound H2N-DD5-o]”, which “autophagy induction, result in words” value (HeLa cells) is on record?
Its value is “almost no autophagy-inducing activity”.

What does the source list for “(hexano)-VcNAcFHIWH (Hexanoyl-V[dC]NA[dC]FHIWH; linker 2-5 via ortho‑xylene (inferred); not fully specified (C-terminus); printed as (hexano)-VcNAcFHIWH) [hexano-DD5-o]”?
concentration at which autophagy induction (p62 degradation and LC3 lipidation) was observed (HeLa cells): 50 µM; autophagy induction, result in words (HeLa cells): induced autophagy, but to a somewhat lesser extent than DD5-o

Which “autophagy induction, result in words” value (HeLa cells) does the source give for “(hexyno)-VcNAcFHIWH (hexynoyl-V[dC]NA[dC]FHIWH; linker 2-5 via ortho‑xylene (inferred); not fully specified (C-terminus); printed as (hexyno)-VcNAcFHIWH) [hexyno-DD5-o]” here?
Its value is “induced autophagy, but to a somewhat lesser extent than DD5-o”.

“(nicot)-VcNAcFHIWH (Nicotinoyl-V[dC]NA[dC]FHIWH; linker 2-5 via ortho‑xylene (inferred); not fully specified (C-terminus); printed as (nicot)-VcNAcFHIWH) [nicot-DD5-o]” was tested. Which “autophagy induction, result in words” value (HeLa cells; listed as nicotinic acid cap) did it give?
The value was “showed no activity; also recorded: no activity was observed”.

For “(pa)-AcNAcFHIWH (pa-A[dC]NA[dC]FHIWH; linker 2-5 via ortho‑xylene (inferred)) [Val1Ala]”, which “autophagy induction, result in words” value (HeLa cells) is on record?
The value was “complete loss in activity”.

And the “autophagy induction, result in words” value (HeLa cells; listed as Vail)?
Its value is “complete loss of activity”.

“(pa)-VCNAcFHIWH (pa-VCNA[dC]FHIWH; linker 2-5 via ortho‑xylene (inferred)) [LD5-o]” was tested. Which “autophagy induction, result in words” value (HeLa cells) did it give?
The value was “mildly increased autophagy”.

For “(pa)-VWNATFHIWH (not fully specified (N-terminus, C-terminus); printed as (pa)-VWNATFHIWH) [pa-10mer, no linker]”, which “concentration at which autophagy induction (p62 degradation and LC3 lipidation) was observed” value (HeLa cells) is on record?
Its value is 100 µM.

And the “autophagy induction, result in words” value (HeLa cells)?
The value was “barely detectable activity”.

With “(pa)-VWNATFHIWHD (not fully specified (N-terminus, C-terminus); printed as (pa)-VWNATFHIWHD) [pa-11mer, no linker]” as the substance, how does the “autophagy induction, result in words” value (HeLa cells) read?
Its value is “did not increase autophagic activity; also recorded: loss of activity”.

With “(pa)-VcAAcFHIWH (pa-V[dC]AA[dC]FHIWH; linker 2-5 via ortho‑xylene (inferred)) [Asn3Ala]” as the substance, how does the “autophagy induction, result in words” value (HeLa cells) read?
The value was “milder effects on activity”.

Which “autophagy induction, result in words” value (HeLa cells) does the source give for “(pa)-VcNACFHIWH (pa-V[dC]NACFHIWH; linker 2-5 via ortho‑xylene (inferred)) [DL5-o]” here?
The value was “mildly increased autophagy”.

For “(pa)-VcNATcHIWH (pa-V[dC]NAT[dC]HIWH; linker 2-6 via meta‑xylene (inferred)) [DD6-m]”, which “concentration at which autophagy induction (p62 degradation and LC3 lipidation) was observed” value (HeLa cells) is on record?
The value was 100 µM.

And the “autophagy induction, result in words” value (HeLa cells)?
The value was “capable of inducing autophagy”.

“(pa)-VcNAcAHIWH (pa-V[dC]NA[dC]AHIWH; linker 2-5 via ortho‑xylene (inferred)) [Phe6Ala]” was tested. Which “autophagy induction, result in words” value (HeLa cells) did it give?
The value was “complete loss of activity; also recorded: complete loss in activity”.

What does the source list for “VWNATFHIWH (not fully specified (N-terminus, C-terminus)) [Compound 5, likely pa-10mer]”?
Activity (μM) 10, p62/actin assay activity (p62; [1]): 0/0; Activity (μM) 20, p62/actin assay activity (p62; [2]): 0/0; Activity (μM) 30, p62/actin assay activity (p62; [3]): 0/0; Activity (μM) 50, p62/actin assay activity (p62; [2]): 0; Activity (μM) 50, p62/actin assay activity (p62; [3]): 0/0; Activity (μM) 100, p62/actin assay activity (p62; [2]): +/+; Activity (μM) 100, p62/actin assay activity (p62; [3]): 0/0; Activity (μM) 10, starred cell, p62/actin assay activity (p62; first symbol): 0/0*; Activity (μM) 10, LC3 assay activity (LC3; [4]): 0/0; Activity (μM) 20, LC3 assay activity (LC3; [5]): 0/0; Activity (μM) 30, LC3 assay activity (LC3; [6]): 0/0; Activity (μM) 50, LC3 assay activity (LC3; [5]): +; Activity (μM) 50, LC3 assay activity (LC3; [6]): 0/0; Activity (μM) 100, LC3 assay activity (LC3; [5]): +/+; Activity (μM) 100, LC3 assay activity (LC3; [6]): 0/0; Activity (μM) 10, starred cell, LC3 assay activity (LC3; second symbol): 0/0*

For “VWNATFHIWH (not fully specified (N-terminus, C-terminus)) [Compound 64]”, which “Activity (μM) 10, p62/actin assay activity” value (p62; [3]) is on record?
Its value is 0/0.

What about the “Activity (μM) 30, starred cell, p62/actin assay activity” value (p62; first symbol) of the same substance?
Its value is 0/0*.

What about the “Activity (μM) 10, LC3 assay activity” value (LC3; [6]) of the same substance?
Its value is 0/0.

What about the “Activity (μM) 30, starred cell, LC3 assay activity” value (LC3; second symbol) of the same substance?
The value was 0/0*.

What does the source list for “VWNATFHIWHD (not fully specified (N-terminus, C-terminus)) [Compound 6, likely pa-11mer]”?
Activity (μM) 10, p62/actin assay activity (p62; [1]): 0/0; Activity (μM) 20, p62/actin assay activity (p62; [2]): 0/0; Activity (μM) 30, p62/actin assay activity (p62; [3]): 0/0; Activity (μM) 50, p62/actin assay activity (p62; [2]): 0/0; Activity (μM) 50, p62/actin assay activity (p62; [3]): ++; Activity (μM) 100, p62/actin assay activity (p62; [2]): 0/0; Activity (μM) 100, p62/actin assay activity (p62; [3]): 0/0; Activity (μM) 10, starred cell, p62/actin assay activity (p62; first symbol): 0/0*; Activity (μM) 10, LC3 assay activity (LC3; [4]): 0/0; Activity (μM) 20, LC3 assay activity (LC3; [5]): 0/0; Activity (μM) 30, LC3 assay activity (LC3; [6]): 0/0; Activity (μM) 50, LC3 assay activity (LC3; [5]): 0/0; Activity (μM) 50, LC3 assay activity (LC3; [6]): 0; Activity (μM) 100, LC3 assay activity (LC3; [5]): 0/0; Activity (μM) 100, LC3 assay activity (LC3; [6]): 0/0; Activity (μM) 10, starred cell, LC3 assay activity (LC3; second symbol): 0/0*

What does the source list for “VWNATFHIWHD [62] ({c(FΦRRRRE)}-VWNATFHIWHD; not fully specified; printed as R1 cyclic c(FΦRRRRE) attached) [Compound 62]”?
Activity (μM) 10, p62/actin assay activity (p62; [3]): ++; Activity (μM) 30, starred cell, p62/actin assay activity (p62; first symbol): +++/+++*; Activity (μM) 10, LC3 assay activity (LC3; [6]): +++; Activity (μM) 30, starred cell, LC3 assay activity (LC3; second symbol): +++/+++*

With “VWNATFHIWHD [63] (not fully specified (N-terminus, C-terminus)) [Compound 63]” as the substance, how does the “Activity (μM) 10, p62/actin assay activity” value (p62; [3]) read?
Its value is 0.

What about the “Activity (μM) 30, starred cell, p62/actin assay activity” value (p62; first symbol) of the same substance?
Its value is 0.

And the “Activity (μM) 10, LC3 assay activity” value (LC3; [6])?
The value was “+”.

What about the “Activity (μM) 30, starred cell, LC3 assay activity” value (LC3; second symbol) of the same substance?
The value was “+++”.

Which results are given for “YGRKKRRQRRRGGVWNATFHIWHD [7] (Ac-YGRKKRRQRRRGGVWNATFHIWHD-NH2) [Compound 7, likely Tat-11mer]”?
Activity (μM) 10, p62/actin assay activity (p62; [1]): 0; Activity (μM) 20, p62/actin assay activity (p62; [2]): +++/+++; Activity (μM) 10, LC3 assay activity (LC3; [4]): ++; Activity (μM) 20, LC3 assay activity (LC3; [5]): +++/+++

What does the source list for “YGRKKRRQRRRGGVWNATFHIWHD [8] (not fully specified (N-terminus, C-terminus)) [Compound 8]”?
Activity (μM) 10, p62/actin assay activity (p62; [1]): 0; Activity (μM) 20, p62/actin assay activity (p62; [2]): 0; Activity (μM) 50, p62/actin assay activity (p62; [2]): ++; Activity (μM) 10, LC3 assay activity (LC3; [4]): +; Activity (μM) 20, LC3 assay activity (LC3; [5]): ++; Activity (μM) 50, LC3 assay activity (LC3; [5]): +++
